{"source": "paper PMC9558223", "about": "“Staphylococcus aureus is able to generate resistance to novel lipoglycopeptide antibiotic gausemycin A” (Frontiers in Microbiology, 2022)", "key": {"[1]": {"test_system": "Staphylococcus aureus 5812R", "assay": "ID32 Staph strip, resistance (novobiocin)", "format": "cell-based", "settings": "colorimetric test", "experimental": "(§1) The biochemical properties were assayed using the ID32 Staph strip (BioMerieux, France), which consists of a set of wells containing dried biochemical media for colorimetric tests."}, "[2]": {"test_system": "Staphylococcus aureus FDA209 P", "assay": "ID32 Staph strip, resistance (novobiocin)", "format": "cell-based", "settings": "colorimetric test", "experimental": "as §1"}, "[3]": {"test_system": "biofilm-embedded staphylococcal cells", "settings": "ref Vasilchenko et al., 2020; cited from earlier work", "from_the_text": "These lipoglycopeptides were firstly described in 2016 (Lapchinskaya et al., [2016]), and consequently named gausemycins A and B (Tyurin et al., [2021]). Gausemycin A is a macrocyclic peptide containing 14 amino acids, where tyrosine is glycosylated with arabinose, which makes gausemycin A unique among natural peptide antibiotics (Tyurin et al., [2021]). The closest structurally related compounds are depsipeptides (daptomycin, taromycins, and cadazides) and cyclopeptides ( ..."}, "S. aureus 5812R [4]": {"test_system": "S. aureus 5812R", "assay": "Resistance stability testing (passaging in drug-free medium)", "format": "cell-based, Staphylococcus aureus", "settings": "17 passages in gausemycin A-free Muller-Hinton broth", "experimental": "The overnight culture of S. aureus 5812R was sub-cultured in gausemycin A-free Muller-Hinton broth and incubated overnight at 37°C with shaking. The obtained culture was evaluated on susceptibility to gausemycin A in the MIC assay as described previously. Passaging in the drug-free medium was repeated 17 times. The experiments were performed in two independent series on separate days with three technical replicates each."}, "S. aureus 5812R [5]": {"test_system": "S. aureus 5812R", "assay": "microbe, parasite or virus in culture", "format": "cell-based, Staphylococcus aureus", "experimental": "(§2) Minimal inhibitory concentration (MIC) was determined as previously described in Fuchs et al. ([2000]), following the Clinical and Laboratory Standards Institute (CLSI) guidelines for broth microdilution MIC assay. The bacteria were incubated in a 96-well microtiter plate (Eppendorf, Germany) containing 90 μL of inoculum prepared in growth media at 10^6 CFU/ml with 10 μL of twofold dilutions of the antibiotics. The results were evaluated after 24 h of cultivation at 37 °C. The bacterial growth was assessed by scanning the absorbance data at 600 nm obtained by spectrophotometer (Multiscan GO, Thermo Fisher Scientific, US)."}, "S. aureus FDA209P [6]": {"test_system": "S. aureus FDA209P", "assay": "microbe, parasite or virus in culture", "format": "cell-based, Staphylococcus aureus", "settings": "broth microdilution (CLSI), 10^6 CFU/ml, 24 h, 37 °C, absorbance at 600 nm", "experimental": "as §2"}, "S. aureus 5812R [7]": {"test_system": "S. aureus 5812R", "assay": "Membrane integrity assay (SYTO 9 / propidium iodide)", "format": "cell-based, Staphylococcus aureus", "settings": "10 mM HEPES, 1.25 mM Ca2+, 10^8 CFU/ml, end-point 10 min", "experimental": "(§3) Membrane integrity was assessed using the fluorescent probes SYTO 9 and propidium iodide (PI) (LIVE/DEAD BacLight Bacterial Viability Kit, Molecular Probes, USA). The test strains were grown to the mid-log phase. The obtained cultures were centrifuged at 10,000 rpm for 10 min, the supernatant was discarded and the pellet was dispersed in 10 mM HEPES buffer supplemented with 1.25 mM Ca ^2+ to an optical density of 0.2 (OD 600) that corresponded to 10^8 CFU/ml. Bacterial cells in 50 μl were transferred to a 96-well microtiter plate (Eppendorf, US). SYTO 9 fluorescence kinetics was measured using Fluoroscan Ascent FL plate reader (Thermo Scientific, US) at 485 nm excitation and 535 nm of emission wavelengths as described earlier (Vasilchenko et al., [2020]). The assay was performed twice in three technical replicates.\n(§4) Microscopy was performed using a Zeiss Axio Imager A2 fluorescent microscope (Carl Zeiss, Germany) equipped with filter sets useful for simultaneous viewing of SYTO 9 and PI stains."}, "S. aureus FDA209P [8]": {"test_system": "S. aureus FDA209P", "assay": "Membrane integrity assay (SYTO 9 / propidium iodide)", "format": "cell-based, Staphylococcus aureus", "settings": "10 mM HEPES, 1.25 mM Ca2+, 10^8 CFU/ml, end-point 10 min", "experimental": "as §3, §4"}, "S. aureus FDA209P [9]": {"test_system": "S. aureus FDA209P", "assay": "Serial passaging in increasing concentrations of antimicrobials", "format": "cell-based, Staphylococcus aureus", "settings": "for The highest concentration of antibiotic allowing growth: Mueller-Hinton II broth (CaCl2 50 mg/L), 37 °C, 24 h", "experimental": "Gausemycin A-resistant variant was obtained by serial passaging as described previously (Pollard et al., [2012]). Isolated colonies of S. aureus FDA209P were inoculated into Mueller-Hinton II broth (CaCl2 50 mg/L) containing twofold dilutions of gausemycin A. The cultures were incubated at 37 °C with aeration for 24 h. After incubation, bacterial cells growing at the highest concentration of gausemycin A (below the MIC) were harvested and used for the next passage. The process was repeated for 20 passages. The dynamic of the developing resistance to gausemycin A was evaluated in comparison with daptomycin and ramoplanin. The experiments were performed in two independent series on separate days with three technical replicates each."}}, "data": [{"molecule": "CO[C@@H]1[C@@H](OC(N)=O)[C@@H](O)[C@H](Oc2ccc3c(O)c(NC(=O)c4ccc(O)c(CC=C(C)C)c4)c(=O)oc3c2C)OC1(C)C", "note": "[novobiocin]", "values": [{"measurement": "Resistance (Novobiocin)", "setting": "[1]", "result": "Positive"}, {"measurement": "Resistance (Novobiocin)", "setting": "[2]", "result": "Positive"}]}, {"molecule": "Gausemycin A", "values": [{"measurement": "Inhibition of biofilm-embedded staphylococcal cells", "setting": "[3]", "result": "able to inhibit"}, {"measurement": "Stability of resistance (MIC after passaging in drug-free medium)", "setting": "S. aureus 5812R [4]", "result": "did not change the MIC value"}, {"measurement": "MIC", "setting": "S. aureus 5812R [5]; S. aureus 5812R, broth microdilution (CLSI), 10^6 CFU/ml, 24 h, 37 °C, absorbance at 600 nm", "result": ">200", "unit": "µg/mL"}, {"measurement": "Change of MIC / resistance of S. aureus 5812R compared to parent strain S. aureus FDA209P", "setting": "S. aureus 5812R [5]; ratio of MIC for 5812R and FDA209P", "result": 80, "unit": "fold"}, {"measurement": "MIC", "setting": "S. aureus FDA209P [6]", "result": 2.5, "unit": "µg/mL"}, {"measurement": "Quenching of SYTO9 fluorescence", "setting": "S. aureus 5812R [7]", "result": "not achieved at all taken concentrations"}, {"measurement": "Concentration giving complete quenching of SYTO9 fluorescence", "setting": "S. aureus FDA209P [8]", "result": 50, "unit": "µg/mL"}, {"measurement": "The highest concentration of antibiotic allowing growth", "setting": "S. aureus FDA209P [9]; passage 1", "result": 2.5, "unit": "µg/mL"}, {"measurement": "The highest concentration of antibiotic allowing growth", "setting": "S. aureus FDA209P [9]; passage 2", "result": 2.5, "unit": "µg/mL"}, {"measurement": "The highest concentration of antibiotic allowing growth", "setting": "S. aureus FDA209P [9]; passage 3", "result": 5, "unit": "µg/mL"}, {"measurement": "The highest concentration of antibiotic allowing growth", "setting": "S. aureus FDA209P [9]; passage 4", "result": 5, "unit": "µg/mL"}, {"measurement": "The highest concentration of antibiotic allowing growth", "setting": "S. aureus FDA209P [9]; passage 5", "result": 5, "unit": "µg/mL"}, {"measurement": "The highest concentration of antibiotic allowing growth", "setting": "S. aureus FDA209P [9]; passage 6", "result": 5, "unit": "µg/mL"}, {"measurement": "The highest concentration of antibiotic allowing growth", "setting": "S. aureus FDA209P [9]; passage 7", "result": 5, "unit": "µg/mL"}, {"measurement": "The highest concentration of antibiotic allowing growth", "setting": "S. aureus FDA209P [9]; passage 8", "result": 10, "unit": "µg/mL"}, {"measurement": "The highest concentration of antibiotic allowing growth", "setting": "S. aureus FDA209P [9]; passage 9", "result": 20, "unit": "µg/mL"}, {"measurement": "The highest concentration of antibiotic allowing growth", "setting": "S. aureus FDA209P [9]; passage 10", "result": 40, "unit": "µg/mL"}, {"measurement": "The highest concentration of antibiotic allowing growth", "setting": "S. aureus FDA209P [9]; passage 11", "result": 40, "unit": "µg/mL"}, {"measurement": "The highest concentration of antibiotic allowing growth", "setting": "S. aureus FDA209P [9]; passage 12", "result": 40, "unit": "µg/mL"}, {"measurement": "The highest concentration of antibiotic allowing growth", "setting": "S. aureus FDA209P [9]; passage 13", "result": 50, "unit": "µg/mL"}, {"measurement": "The highest concentration of antibiotic allowing growth", "setting": "S. aureus FDA209P [9]; passage 14", "result": 100, "unit": "µg/mL"}, {"measurement": "The highest concentration of antibiotic allowing growth", "setting": "S. aureus FDA209P [9]; passage 15", "result": 100, "unit": "µg/mL"}, {"measurement": "The highest concentration of antibiotic allowing growth", "setting": "S. aureus FDA209P [9]; passage 16", "result": 100, "unit": "µg/mL"}, {"measurement": "The highest concentration of antibiotic allowing growth", "setting": "S. aureus FDA209P [9]; passage 17", "result": 150, "unit": "µg/mL"}, {"measurement": "The highest concentration of antibiotic allowing growth", "setting": "S. aureus FDA209P [9]; passage 18", "result": 200, "unit": "µg/mL"}, {"measurement": "The highest concentration of antibiotic allowing growth", "setting": "S. aureus FDA209P [9]; passage 19", "result": 200, "unit": "µg/mL"}, {"measurement": "The highest concentration of antibiotic allowing growth", "setting": "S. aureus FDA209P [9]; passage 20", "result": ">200", "unit": "µg/mL"}, {"measurement": "Number of passages within which resistance was formed", "setting": "S. aureus FDA209P [9]; serial passages with sub-inhibitory concentrations", "result": "≤ 20", "unit": "passages"}]}]}
